Where two headings read alike, the source gives them in different places.
System: SSTR2 mutants
Assay: NanoBiT β-arrestin 1 recruitment assay, HEK293 (SSTR2 mutants);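 for Emax: percent of the maximal wild-type SSTR2 response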;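 for Top: percent of maximal wild-type response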
Format: cell-based, human
Parameters: Bottom / Span / Bottom (best-fit) / Span (best-fit) / Best-fit values Bottom / Best-fit values Span / Bottom (best-fit value) / Span (best-fit value):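 percent of maximal wild-type response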
Conditions: for EC50: read-out: EC50
Method: The NanoBiT β-arrestin 1 recruitment assays were carried out according to the method described previously. […] Human full-length SSTR wild-type and mutant vectors were C-terminally fused with a 15-amino acid flexible linker and the small fragment (SmBiT). HEK293 cells were seeded into six-well microplates at a density of 1.0 × 10^6 cells/well and cultured for 24 h at 37 °C with 5% CO2. After that, cells were co-transfected with pcDNA3.1+ vectors encoding SSTR wild-type or mutants and human β-arrestin 1. After transfecting for 24 h, the transfected cells were suspended and seeded into white 96-well plates, and then cultured at 37 °C overnight. After that the medium in each well was exchanged for 90 μl of 0.01% bovine serum albumin containing 20 μl of 50 μM coelenterazine h (Carbosynth) diluted in the HBSS assay buffer and incubated for 40 min at room temperature. Then, ligands diluted in the assay buffer was added to each well and the luminescence intensity was measured using the Synergy H1 microplate reader and detected at room temperature in a time period. All data presented are means of at least three independent experiments.

[1] = best-fit value, T194A-1 (run 1)
[2] = best-fit value, T194A-2 (run 2)
[3] = best-fit value, T194A-3 (run 3)
[4] = best-fit value, V103A-1 (run 1)
[5] = best-fit value, V103A-2 (run 2)
[6] = best-fit value, V103A-3 (run 3)
[7] = β-arrestin recruitment, SSTR2 F127(3.37)A, n=3
[8] = β-arrestin recruitment, SSTR2 I195(45.52)A, n=3, ND = not detected
[9] = β-arrestin recruitment, SSTR2 I284ECL3A, n=3
[10] = β-arrestin recruitment, SSTR2 L290(7.31)A, n=3
[11] = β-arrestin recruitment, SSTR2 P286ECL3A, n=3
[12] = β-arrestin recruitment, SSTR2 S279(6.58)A, n=3
[13] = β-arrestin recruitment, SSTR2 S285ECL3A, n=3
[14] = β-arrestin recruitment, SSTR2 T287ECL3A, n=3
[15] = β-arrestin recruitment, SSTR2 V103(2.64)A, n=3, ND = not detected
[16] = β-arrestin recruitment, SSTR2 W188ECL3A, n=3
[17] = β-arrestin recruitment, SSTR2 W269(6.48)A, n=3
[18] = β-arrestin recruitment, SSTR2 Y50(1.39)A, n=3
[19] = β-arrestin recruitment, SSTR2 Y205(5.35)A, n=3
[20] = β-arrestin recruitment, SSTR2 Y302(7.43)A, n=3

C[C@@H](O)[C@@H]1NC(=O)[C@H](CCCCN)NC(=O)[C@@H](Cc2c[nH]c3ccccc23)NC(=O)[C@H](Cc2ccccc2)NC(=O)[C@@H](NC(=O)[C@H](N)Cc2ccccc2)CSSC[C@@H](C(=O)N[C@H](CO)[C@@H](C)O)NC1=O [octreotide]
LogEC50 (best-fit value, L99A-3 (run 3)): -6.902
Span (best-fit value, L99A-3 (run 3)): 131.2
Top (best-fit value, L99A-3 (run 3)): 128.3
LogEC50 [1]: -7.278
Span [1]: 56.43
EC50 [1]: 52.8 nM
LogEC50 [2]: -7.381
Span [2]: 55.9
EC50 [2]: 41.6 nM
LogEC50 [3]: -7.29
Span [3]: 56.81
EC50 [3]: 51.3 nM
Bottom [4]: -1.867
LogEC50 [4]: -7.141
Span [4]: 86.59
Top [4]: 84.73
EC50 [4]: 72.2 nM
Bottom [5]: -2.214
LogEC50 [5]: -7.263
Span [5]: 87.54
Top [5]: 85.33
EC50 [5]: 54.6 nM
Bottom [6]: -2.646
LogEC50 [6]: -7.193
Span [6]: 87.08
Top [6]: 84.44
EC50 [6]: 64.1 nM
Bottom (best-fit value, Y50A-1 (run 1)): -0.1631
LogEC50 (best-fit value, Y50A-1 (run 1)): -8.742
Span (best-fit value, Y50A-1 (run 1)): 56.29
Top (best-fit value, Y50A-1 (run 1)): 56.13
EC50 (best-fit value, Y50A-1 (run 1)): 1.81 nM
Bottom (best-fit value, Y50A-2 (run 2)): -2.513
LogEC50 (best-fit value, Y50A-2 (run 2)): -7.952
Span (best-fit value, Y50A-2 (run 2)): 74.92
Top (best-fit value, Y50A-2 (run 2)): 72.41
EC50 (best-fit value, Y50A-2 (run 2)): 11.2 nM
Bottom (best-fit value, Y50A-3 (run 3)): -0.965
LogEC50 (best-fit value, Y50A-3 (run 3)): -8.796
Span (best-fit value, Y50A-3 (run 3)): 58.15
Top (best-fit value, Y50A-3 (run 3)): 57.19
EC50 (best-fit value, Y50A-3 (run 3)): 1.6 nM
Bottom (best-fit, I284A-1): 2.896
LogEC50 (best-fit, I284A-1): -7.134
Span (best-fit, I284A-1): 74.77
Top (best-fit, I284A-1): 77.67
EC50 (best-fit, I284A-1): 73.4 nM
Bottom (best-fit, I284A-2): -1.923
LogEC50 (best-fit, I284A-2): -7.815
Span (best-fit, I284A-2): 108.7
Top (best-fit, I284A-2): 106.8
EC50 (best-fit, I284A-2): 15.3 nM
Bottom (best-fit, I284A-3): 2.808
LogEC50 (best-fit, I284A-3): -7.106
Span (best-fit, I284A-3): 79.8
Top (best-fit, I284A-3): 82.61
EC50 (best-fit, I284A-3): 78.4 nM
LogEC50 (best-fit, P286A-1): -8.053
Span (best-fit, P286A-1): 62.29
Top (best-fit, P286A-1): 66.68
EC50 (best-fit, P286A-1): 8.86 nM
Bottom (best-fit, P286A-2): 2.819
LogEC50 (best-fit, P286A-2): -8.168
Span (best-fit, P286A-2): 59.43
Top (best-fit, P286A-2): 62.25
EC50 (best-fit, P286A-2): 6.79 nM
Bottom (best-fit, P286A-3): 4.198
LogEC50 (best-fit, P286A-3): -8.213
Span (best-fit, P286A-3): 84.87
Top (best-fit, P286A-3): 89.07
EC50 (best-fit, P286A-3): 6.12 nM
Bottom (best-fit, S285A-1): 2.2
LogEC50 (best-fit, S285A-1): -9.537
Span (best-fit, S285A-1): 70
Top (best-fit, S285A-1): 72.2
EC50 (best-fit, S285A-1): 0.29 nM
Bottom (best-fit, S285A-2): 3.756
LogEC50 (best-fit, S285A-2): -9.426
Span (best-fit, S285A-2): 71.47
Top (best-fit, S285A-2): 75.22
EC50 (best-fit, S285A-2): 0.375 nM
Bottom (best-fit, S285A-3): 9.309
LogEC50 (best-fit, S285A-3): -8.736
Span (best-fit, S285A-3): 80.53
Top (best-fit, S285A-3): 89.84
EC50 (best-fit, S285A-3): 1.84 nM
Bottom (best-fit, T194A-1): -0.5401
Top (best-fit, T194A-1): 55.89
Bottom (best-fit, T194A-2): -0.9576
Top (best-fit, T194A-2): 54.95
Bottom (best-fit, T194A-3): -0.591
Top (best-fit, T194A-3): 56.22
Bottom (best-fit, T287A-1): 4.198
LogEC50 (best-fit, T287A-1): -8.213
Span (best-fit, T287A-1): 84.87
Top (best-fit, T287A-1): 89.07
EC50 (best-fit, T287A-1): 6.12 nM
Bottom (best-fit, T287A-2): 5.592
LogEC50 (best-fit, T287A-2): -8.324
Span (best-fit, T287A-2): 86.73
Top (best-fit, T287A-2): 92.33
EC50 (best-fit, T287A-2): 4.75 nM
Bottom (best-fit, T287A-3): 0.1327
LogEC50 (best-fit, T287A-3): -8.522
Span (best-fit, T287A-3): 80.53
Top (best-fit, T287A-3): 80.66
EC50 (best-fit, T287A-3): 3 nM
LogEC50 (best-fit, W188A-1): -8.611
Span (best-fit, W188A-1): 57.05
Top (best-fit, W188A-1): 61.7
EC50 (best-fit, W188A-1): 2.45 nM
Bottom (best-fit, W188A-2): 0.0794
LogEC50 (best-fit, W188A-2): -8.245
Span (best-fit, W188A-2): 81.84
Top (best-fit, W188A-2): 81.92
EC50 (best-fit, W188A-2): 5.69 nM
Bottom (best-fit, W188A-3): 6.02
LogEC50 (best-fit, W188A-3): -8.295
Span (best-fit, W188A-3): 58.94
Top (best-fit, W188A-3): 64.96
EC50 (best-fit, W188A-3): 5.07 nM
Emax (β-arrestin recruitment, I130A, earlier manuscript version quoted by reviewer, superseded): 60%
Emax (β-arrestin recruitment, SSTR2 D295(7.36)A, detected at 10 μM, n=3): 119.20±34.68 %WT
EC50 (β-arrestin recruitment, SSTR2 D295(7.36)A, n=3): 319 ± 6.78 nM
Emax [7]: 52.62±2.57 %WT
EC50 [7]: 4.33 ± 1.53 nM
Emax (β-arrestin recruitment, SSTR2 F208(5.38)A, n=3): 75.93±9.81 %WT
EC50 (β-arrestin recruitment, SSTR2 F208(5.38)A, n=3, ND = not detected): 163 ± 6.17 nM
Emax (β-arrestin recruitment, SSTR2 F265(6.44)A, detected at 10 μM, n=3 octreotide, 4 paltusotine): 67.17±9.75 %WT
Emax (β-arrestin recruitment, SSTR2 I130(3.40)A, detected at 10 μM, n=3): 76.52±9.52 %WT
Emax [8]: 59.10±0.47 %WT
EC50 [8]: 54.3 ± 4.1 nM
Emax [9]: 89.03±9.00 %WT
EC50 [9]: 55.7 ± 2.03 nM
Emax (β-arrestin recruitment, SSTR2 L99(2.60)A, n=3): 96.13±25.27 %WT
EC50 (β-arrestin recruitment, SSTR2 L99(2.60)A, n=3, ND = not detected): 91.6 ± 3.34 nM
Emax [10]: 85.66±1.04 %WT
EC50 [10]: 1.8 nM
Emax (β-arrestin recruitment, SSTR2 P220(5.50)A, n=3): 61.16±16.24 %WT
EC50 (β-arrestin recruitment, SSTR2 P220(5.50)A, n=3 octreotide, 4 paltusotine, ND = not detected): 99.8 ± 9 nM
Emax [11]: 76.51±12.11 %WT
EC50 [11]: 6.35 ± 1.59 nM
Emax (β-arrestin recruitment, SSTR2 Q102(2.63)A, detected at 10 μM, n=3): 57.95±5.20 %WT
Emax [12]: 87.86±7.76 %WT
EC50 [12]: 11.9 ± 4.76 nM
Emax [13]: 79.09±5.45 %WT
EC50 [13]: 0.84 nM
Emax (β-arrestin recruitment, SSTR2 T194(45.51)A, n=3): 55.69±0.38 %WT
EC50 (β-arrestin recruitment, SSTR2 T194(45.51)A, n=3, ND = not detected): 48.7 ± 3.38 nM
Emax [14]: 87.90±2.95 %WT
EC50 [14]: 4.71 ± 8.35 nM
Emax [15]: 84.83±0.26 %WT
EC50 [15]: 63.7 ± 5.11 nM
Emax [16]: 69.46±6.21 %WT
EC50 [16]: 4.34 ± 9.5 nM
Emax [17]: 33.36±2.81 %WT
EC50 [17]: 55.3 ± 1.35 nM
Emax [18]: 61.91±5.26 %WT
EC50 [18]: 4.87 ± 3.17 nM
Emax [19]: 108.30±13.91 %WT
EC50 [19]: 8.52 ± 5.74 nM
Emax [20]: 109.40±18.82 %WT
EC50 [20]: 1.82 nM

Source: PMC9944328 (Nature Communications, 2023)
